Assay results taken from publication PMC12736255, “Reinvestigating Pyrrol-2-One-Based Compounds: From Antimicrobial Agents to Promising Antitumor Candidates” (Pharmaceuticals, 2025).

Experiments:
[1] = tested on: osteosarcoma (HOS and MG-63) cells; assay: CellTiter-Glo 2.0 cytotoxicity, osteosarcoma; assay type: cell-based, human; conditions: osteosarcoma cell lines, 10 and 50 µM, 24 h
Procedure: (§1) Cytotoxicity of compounds was assessed using the CellTiter-Glo® 2.0 Assay (Promega, Madison, WI, USA) on human gingival fibroblasts (HGF), osteosarcoma (HOS and MG-63) and glioblastoma (LN-229 and U-118MG) cells, according to the manufacturer’s instructions. HGF, HOS, MG-63 and U-118MG cells were purchased from Cytion GmbH, Eppelheim, Germany, and LN-229 (CRL-2611) from the American Type Culture Collection (ATCC), Manassas, VA, USA. Cells were seeded (50,000 cells/mL—HGF, 100,000 cells/mL—tumor cells) into 96-well opaque white tissue culture-treated plates and allowed to adhere overnight in αMEM medium with 10% fetal bovine serum and 1% antibiotic-antimycotic (all from PAN—Biotech GmbH, Aidenbach, Germany). Cells were incubated with compounds (10 or 50 µM) for 24 h, then CellTiter-Glo® reagent was added and luminescence was recorded using a FLUOstar® Omega microplate reader (BMG LABTECH, Ortenberg, Germany). The experiments were carried out in triplicate, and the viability of treated cells was expressed as a percentage of the viability of control cells (untreated). Data were represented as means ± standard deviations. Stock solutions of compounds were prepared in DMSO, then diluted in complete cell culture media. […] Data were analyzed with independent two-tailed (Student’s) t-test, considering p < 0.05 statistically significant.

[2] = tested on: human gingival fibroblasts (HGF); assay: CellTiter-Glo 2.0 cytotoxicity, normal fibroblasts; assay type: cell-based; conditions: 50 µM, 24 h
Procedure: as §1

fungal strains = tested on: fungal strains; set-up: method as in PMID 38398524; conditions: cited from earlier work
[3] = CellTiter-Glo 2.0 cytotoxicity, normal fibroblasts; assay type: cell-based, human; conditions: human, human gingival fibroblasts (HGF), read-out: cell viability
Procedure: as §1

| Compound | cytotoxicity (activity in words) [1] | antifungal activity (in words) (fungal strains) | other results |
| --- | --- | --- | --- |
| O=C1C(Nc2ccc(I)cc2)=CC(c2ccc(O)cc2)N1c1ccc(I)cc1 (stereo not drawn) [3g] | notable activity |  |  |
| O=C1C(Nc2ccc(I)cc2)=CC(c2ccc(O)c(O)c2)N1c1ccc(I)cc1 (stereo not drawn) [3h] | notable activity |  | cytotoxicity (activity in words) [2]: acute cytotoxicity |
| COc1ccccc1C1C=C(Nc2ccc(I)cc2)C(=O)N1c1ccc(I)cc1 (stereo not drawn) [3i] |  | most effective against fungal strains |  |
| COc1cc(OC)c(C2C=C(Nc3ccc(I)cc3)C(=O)N2c2ccc(I)cc2)cc1OC (stereo not drawn) [3k] |  |  | viability at 24 h, 50 µM [3]: 64% |
| N#Cc1ccc(C2C=C(Nc3ccc(I)cc3)C(=O)N2c2ccc(I)cc2)cc1 (stereo not drawn) [3l] |  | most effective against fungal strains |  |
